Broadly, the IC50 is the concentration at which inhibition is half-maximal. The Kd is the concentration at which binding is half-saturated.

Entries after “also recorded” stand apart in the source; their conditions may differ. Read-outs that look alike come from different tables or passages of the source.

Series [1] deals with T1, human SIRT2 catalytic domain (6xHis-SUMO-SIRT2) (Homo sapiens, UniProt Q8IXJ6).
T1 sequence (Q8IXJ6 34-356): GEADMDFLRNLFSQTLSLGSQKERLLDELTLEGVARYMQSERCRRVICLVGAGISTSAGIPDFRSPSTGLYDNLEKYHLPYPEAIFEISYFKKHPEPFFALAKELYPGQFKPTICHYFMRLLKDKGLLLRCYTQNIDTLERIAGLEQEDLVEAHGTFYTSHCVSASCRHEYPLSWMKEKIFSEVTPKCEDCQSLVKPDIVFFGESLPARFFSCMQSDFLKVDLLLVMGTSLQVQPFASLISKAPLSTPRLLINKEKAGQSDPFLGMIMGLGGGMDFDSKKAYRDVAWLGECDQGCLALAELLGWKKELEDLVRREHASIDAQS

The target of series [2] is T2, SIRT2 (Homo sapiens, UniProt Q8IXJ6).
T2 sequence (Q8IXJ6 34-356): T1 sequence (Q8IXJ6 34-356)
To be noted: read-out: IC50 for SIRT2 demyristoylase activity; cited from earlier work.

The target in series [3] is T2, SIRT2. To be noted: cited from earlier work.
Series [4] concerns the target T1, human SIRT2 catalytic domain (6xHis-SUMO-SIRT2). In words: SIRT2—myristoyl-peptide HTRF binding assay (displacement of FAM-myristoyl-H4K16 peptide). To be noted: at the highest ligand concentrations. Background: In TR-FRET formats the signal depends on donor and acceptor labels being close together.
Series [5] has the same target. As to the kind of experiment: biochemical.
The target of series [6] is T2, SIRT2. In words: SIRT2 de-dodecanoylase activity assay (MALDI-MS, dodecanoyl-H4K16 peptide). Format: biochemical. The settings on record: 0.5 μM dodecanoyl-H4K16, 1 mM NAD+. Here is the method: (§1) The enzymatic activity of SIRT2 was measured using a MALDI-MS—based protocol reported previously. Reactions were performed at 37°C for 2.5 min in PBS containing 1 mM DTT and 1 mM of NAD^+. Acylated H4K16 peptides were used as the substrates at the following concentrations: acetyl-H4K16, 4 μM; decanoyl-H4K16, 0.2 μM; dodecanoyl-H4K16, 0.5 μM; myristoyl-H4K16, 0.5 μM. These concentrations correspond to the enzyme’s Km for each substrate under saturating NAD^+ conditions. The enzyme concentration in each reaction was chosen such that 20% or less of the substrate was processed by the enzyme when the reactions were quenched. In dose-response assays showing a reduction in SIRT2 activity by increasing amounts of ligand, the data was fit with standard sigmoidal dose-response curves as we previously described. We report absolute IC50 values from the curves which reflect ligand concentrations that reduce the activity of the enzyme by 50% compared to control (no ligand) samples. Assays measuring the effects of ligand on SIRT1 deacetylase and SIRT6 demyristoylase activities were performed similarly, as previously described.

The target of series [7] is T2, SIRT2. In words: SIRT2 deacetylase activity assay (MALDI-MS, acetyl-H4K16 peptide). Format: biochemical. Here is the method:
as §1

Series [8] has as its system acetylated alpha-tubulin in A549 SIRT2-KO cells. In words: Immunofluorescence staining of acetylated alpha-tubulin in A549 SIRT2-KO cells. Format: cell-based, human. The settings on record: 100 μM, 6 hours.
Another series deals with A549 cells. In words: Cell viability MTT assay. The class given is cell-based, human. The settings on record: 72 hours treatment, concentrations shown in Fig 4F and 4G. Here is the method: 5,000 A549 cells were seeded in a 96-well plate in full DMEM. The total volume in each well was 150 μl, and the DMSO concentration was 0.7%. After this treatment period, 10 μl of MTT reagent was added to each well, then the cells were cultured for 4 hour before adding 100 μl of crystal dissolving solution for another 16 hour incubation (Cayman Chemical, catalog #10009365). The absorbance in each well was measured at 570 nm and was used to determine the cell viability by comparing the absorbance of drug treated cells to control (DMSO treated) cells.
For orientation: Tetrazolium assays rely on reduction of a dye to a coloured formazan, in cell work by metabolically active cells.

The target in another series is T3, SIRT1 (Homo sapiens, UniProt Q96EB6).
T3 sequence (Q96EB6 1-747): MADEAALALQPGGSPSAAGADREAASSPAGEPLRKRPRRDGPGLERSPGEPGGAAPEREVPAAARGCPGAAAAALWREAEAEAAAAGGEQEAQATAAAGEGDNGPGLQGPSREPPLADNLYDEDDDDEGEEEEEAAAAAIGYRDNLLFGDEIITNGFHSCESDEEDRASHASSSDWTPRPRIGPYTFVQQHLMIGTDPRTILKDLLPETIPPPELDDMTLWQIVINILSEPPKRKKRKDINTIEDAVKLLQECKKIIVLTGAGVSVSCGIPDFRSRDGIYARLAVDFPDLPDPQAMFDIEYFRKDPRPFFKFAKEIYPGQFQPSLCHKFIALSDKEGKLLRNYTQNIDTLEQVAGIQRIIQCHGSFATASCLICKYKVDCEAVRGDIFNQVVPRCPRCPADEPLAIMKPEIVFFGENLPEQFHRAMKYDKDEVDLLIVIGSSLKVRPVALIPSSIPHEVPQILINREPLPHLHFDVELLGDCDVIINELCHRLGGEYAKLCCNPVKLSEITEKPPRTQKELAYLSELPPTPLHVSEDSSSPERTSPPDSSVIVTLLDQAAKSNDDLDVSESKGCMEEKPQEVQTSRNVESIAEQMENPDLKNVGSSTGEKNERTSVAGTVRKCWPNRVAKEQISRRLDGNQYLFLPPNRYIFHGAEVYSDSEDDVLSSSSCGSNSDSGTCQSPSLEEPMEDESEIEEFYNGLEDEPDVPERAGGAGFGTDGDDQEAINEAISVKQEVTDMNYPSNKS
In words: SIRT1 deacetylase activity assay. The class given is biochemical. The settings on record: 1 μM acetyl-H4K16. Here is the method: as §1

Series [9] concerns acetylated alpha-tubulin in A549 cells. As to the kind of experiment: Immunofluorescence staining of acetylated alpha-tubulin in A549 cells. Format: cell-based, human. To be noted: 100 μM, 6 hours. The protocol:
100,000 A549 or A549 SIRT2-KO cells were seeded on a coverslip that was placed in the well of 6-well plate, and the cells were grown overnight in full DMEM. […] The cells were then washed three times with PBS, fixed with 4% paraformaldehyde for 10 min, then washed again three times with PBS. Cells were incubated with 0.2% Triton X-100 for 15 minutes on a shaker followed by three more PBS washes. The cells were then blocked with 2% BSA in PBS for 1 hour at room temperature. […] Slides were imaged using a Keyence BZ-X710 fluorescence microscope with the following filter settings: DAPI, excitation/emission was 300–400 nm/438-484 nm; Alexa Fluor 488, excitation/emission was 448 nm/500-550 nm. All images were obtained under identical conditions, and fluorescence intensities were quantified using Fiji/ImageJ without any manipulation to the images. The fluorescence intensity from at least six cells per coverslip were randomly selected and measured targeting the cytosol (for measuring acetylated alpha-tubulin levels via Alexa Fluor 488) or the nucleus (for measuring nuclear DNA staining via DAPI). Relative fluorescence intensity was calculated as the ratio of Alexa Fluor 488/DAPI intensities. […]

In another series the target is SIRT6 (Homo sapiens, UniProt Q8N6T7). In words: SIRT6 demyristoylase activity assay. The class given is biochemical. The settings on record: 16 μM myristoyl-H4K16, dose-response. Here is the method: as §1
Sequence of SIRT6 (Q8N6T7 whole entry): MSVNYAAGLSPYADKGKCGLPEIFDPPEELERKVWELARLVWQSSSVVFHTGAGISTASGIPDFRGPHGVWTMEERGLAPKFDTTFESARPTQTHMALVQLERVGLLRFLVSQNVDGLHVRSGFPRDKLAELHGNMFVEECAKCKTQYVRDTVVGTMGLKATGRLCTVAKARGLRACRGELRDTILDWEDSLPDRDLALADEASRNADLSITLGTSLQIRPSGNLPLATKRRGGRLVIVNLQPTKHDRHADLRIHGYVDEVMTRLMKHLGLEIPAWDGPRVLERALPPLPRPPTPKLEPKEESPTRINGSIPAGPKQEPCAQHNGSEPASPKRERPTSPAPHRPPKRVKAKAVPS
In series [10] the target is T2, SIRT2. As to the kind of experiment: SIRT2 binding competition assay using Cy3-myristoyl-H4K16 peptide. Here is the method: Competition assays where Cy3-myristoyl-H4K16 peptide was displaced from SIRT2 by 1 were performed as previously described. Assays were performed in PBS with 1 mM DTT at 23°C in a quartz microcuvette (160 μl assay volume). Briefly, the fluorescence intensity of 50 nM Cy3-myristoyl-H4K16 peptide was measured in the presence of 2.5 μM SIRT2 and increasing amounts of 1 using excitation/emission wavelengths of 535 nm/560 nm. The final DMSO concentration in each measurement was 0.6%. As previously described, displacement of Cy3-myristoyl-H4K16 peptide from SIRT2 by a competitive ligand results in a reduction of its fluorescence.
(§2) The data from both competition assays show a reduction in probe fluorescence at increasing concentrations of competitor ligands. […] We determined and report absolute IC50 values from the curves which reflect ligand concentrations that reduce the fluorescence by 50% compared to control (no ligand) samples.

Series [11] concerns the target T2, SIRT2. In words: SIRT2 de-decanoylase activity assay (MALDI-MS, decanoyl-H4K16 peptide). The class given is biochemical. To be noted: 0.2 μM decanoyl-H4K16, 1 mM NAD+. The protocol: as §1
Series [12] has as its target T2, SIRT2. In words: SIRT2 demyristoylase activity assay (MALDI-MS, myristoyl-H4K16 peptide). Format: biochemical. Here is the method:
as §1

Series [13] has as its target SIRT2—decanoyl-peptide complex (Homo sapiens, UniProt Q8IXJ6). As to the kind of experiment: 1-aminoanthracene binding competition assay, SIRT2—decanoyl-peptide complex. The protocol: (§3) Competition assays where 1-aminoanthracene was displaced from SIRT2 by 2, 4, 5, and 6 were performed as previously reported where we described its displacement from SIRT2 by 3. The assays were also cuvette-based and performed at 23°C in PBS with 1 mM DTT, and the final DMSO concentration was 0.6%. Briefly, the fluorescence intensity of 100 nM 1-aminoanthracene was measured in the presence of 4 μM SIRT2 and increasing amounts of ligand using excitation/emission wavelengths of 390 nm/520 nm. As previously described, displacement of 1-aminoanthracene from SIRT2 by a competitor results in a reduction of its fluorescence.
as §2

The target of series [14] is T2, SIRT2. In words: Intact protein MALDI-MS for covalent adduct on SIRT2. To be noted: 100 μM ligand, 10 μM SIRT2, 37°C, 30 minutes. Here is the method: (A) MALDI-MS spectra of 10 μM SIRT2 after incubation in PBS with 1% DMSO at 37°C for 30 minutes. (B) MALDI-MS spectra of 10 μM SIRT2 after incubation with 100 μM of 2 in PBS with 1% DMSO at 37°C for 30 minutes. The predicted monoisotopic mass for this SIRT2 protein was 36552 Da, and the predicted average mass was 36576 Da; thus, the main peaks represented +1 ions in the isotopic cluster. […] The intact protein spectra were acquired with a Bruker microflex instrument in linear, positive ion mode using sinapinic acid as the matrix. Sinapinic acid was dissolved in 50% acetonitrile/50% water with 0.1% trifluoroacetic acid, which was also used to dilute protein prior to spotting on the MALDI plate. (TIFF)

In series [15] the target is T2, SIRT2. In words: 1-aminoanthracene binding competition assay, SIRT2 alone. The protocol: as §3
We determined and report absolute IC50 values from the curves which reflect ligand concentrations that reduce the fluorescence by 50% compared to control (no ligand) samples.

Series [16] addresses SIRT2—decanoyl peptide complex. The arrangement: method as in PMID 32941003. The settings on record: cited from earlier work.
Series [17] concerns the target T2, SIRT2. The settings on record: read-out: Deacetylase IC50; previously published; cited from earlier work.

In series [1], `COc1ccc(NC(=O)c2ccc3c(SCC(=O)O)c4c(nc3c2)CCCC4)c(OC)c1` [C598-0017] yielded an IC50 of 6.34 µM.

On to `CCCCCCCCCCCCCCCC(=O)OC[C@H](O)[C@H]1OC(=O)C(O)=C1O` [ascorbyl palmitate], for which the IC50 is 8 to 23 µM at SIRT2 [2] and 2 µM in series [5]. At SIRT2 [3] (read-out: published Kd for SIRT2), the Kd is 3 to 5 µM. The “maximum reduction of HTRF FRET signal (displacement of FAM-myristoyl-H4K16 peptide)” value in [4] was ~ 40%.

For the compound `O=c1/c(=C\c2cc(Br)cc(I)c2O)sc2nc3ccccc3n12` [compound 1], the IC50 against SIRT2 [6] turned out to be 39 µM; against SIRT2 [7] it was 7 µM; on SIRT1 it was 32 µM; on SIRT2 [10] (50 nM Cy3 peptide, 2.5 μM SIRT2, 23°C, read-out: IC50 for displacement of Cy3-myristoyl-H4K16 peptide from SIRT2) it was 16 µM; against SIRT2 [11], 8 µM; against SIRT2 [12], 37 µM. In [5], this compound returned an IC50 of 6.92 µM. For the same compound, the “level of acetylated alpha-tubulin (immunofluorescence)” value in series [8] is listed as “no effect”; in [9], “significantly increased; also recorded: enhanced fluorescence”. In the series with A549 cells, the “viability / toxicity in A549 cells (MTT)” value was “did not cause toxicity; also recorded: no effect”. Besides, the “effect on the demyristoylase activity of SIRT6” value on SIRT6 is recorded as “no effect”. Also, the Kd at SIRT2 [10] (calculated from IC50 of Cy3-myristoyl-H4K16 peptide competition assay) is 5 µM. Also, the “effect on the demyristoylase activity of SIRT2” value at SIRT2 [12] (50 μM compound) is “considerably most effective”.

As to `Oc1ccc(Br)cc1I` [compound 2, 4-bromo-2-iodophenol], the IC50 came out at 9 µM against SIRT2 [7]; 7 µM in series [13] (SIRT2-decanoyl peptide complex, 100 nM 1-aminoanthracene, 4 μM SIRT2, 10 μM decanoyl-H4K16 peptide); 75 µM on SIRT2 [15] (SIRT2 only, 100 nM 1-aminoanthracene, 4 μM SIRT2). For the same compound, the Kd was determined as 3 µM in [13] and 68 µM at SIRT2 [15] (read-out: SIRT2 Kd). In addition, the “affinity for SIRT2—decanoyl-peptide complex compared to SIRT2 alone” value in [13] (stronger for the complex) is reported as 23 fold. Moreover, at SIRT2 [14], the “covalent reaction with SIRT2 (intact protein mass spectrometry)” value is “does not irreversibly attach to SIRT2 or form any type of covalent adduct; also recorded: does not covalently react with SIRT2”. The “Demyristoylase IC50” value at SIRT2 [12] (0.5 μM myristoyl-H4K16, 1 mM NAD+, 37°C, absolute IC50, "no effect" = 200 μM compound did not significantly affect SIRT2 activity) is “no effect”.

As for `CC(C)c1cccc(C(C)C)c1O` [compound 3, 2-6-diisopropylphenol], the IC50 on SIRT2 [2] was 195 µM; on SIRT2 [17], 140 µM. For the same compound, the Kd in series [16] is 7 µM; at SIRT2 [3] (read-out: Kd for SIRT2 alone), 25 µM.
